Measured values published in PMC9363195, “Preclinical Pharmacokinetics, Biodistribution, and Acute Toxicity Evaluation of Caerin 1.9 Peptide in Sprague Dawley Rats” (Evidence-based Complementary and Alternative Medicine : eCAM, 2022).
Values joined by “and” are separate entries in the source; they are usually repeats but may differ in a detail not shown here. Equal values may be shown once. Read-outs that look alike come from different tables or passages of the source. Peptide text beside a SMILES is read from it.

What was measured:
Assay type in all cases: in vivo, Sprague Dawley rats
SD rats [1] = test: Food intake and body weight gain in acute toxicity study; conditions: single or repeated s.c. injection
Procedure: For 14 days, the body weight was measured before F3 administration on the first day of the experiment and once a week thereafter, with additional measurements on the day before and on the day of the planned autopsy. Food intake was recorded once a week. The rats were anesthetized by inhalation of 70% CO2/30% O2 before dissection, and blood samples were taken for hematology and biochemical analysis. The collected tissue was weighed and preserved for pathological examination.

[2] = Pharmacokinetics of repeated subcutaneous injection of F3 (10.0 mg/kg daily, 14 days); conditions: for accumulation in plasma: after 14 days of repeated s.c. injection at 10.0 mg/kg; for CL/F: read-out: Cl_F_obs (clearance rate) (converted)
Procedure: The first day of F3 administration was recorded as day 1. At least 0.5 ml blood samples were obtained alternatively from 3M/3F rats at pre- and post-F3 injection time periods (0, 0.5, 1, 2, 4, 6, 8, and 24 hr).
(§1) The concentration of F3 in rat plasma was determined by liquid chromatography-tandem mass spectrometry, using the method established by Kanglong Huacheng Co., Ltd. The analyte was assayed by liquid chromatography coupled with the tandem mass spectrometry (LC-MS/MS) method. The LC-MS/MS system consisted of a Shimadzu HPLC system (Kyoto, Japan) and an LCMS-8060 instrument (serial no. 011105500332 AE). The following were the LC conditions: column, HALO ES-C18 2.7 µ C18 160A (50 × 2.1 mm); gradient elution at 0.5 mL/min with 5% acetonitrile in water containing 0.1% formic acid or 95% acetonitrile in water containing 0.1% formic acid; and injection volume of 10 µL. A multiple reaction monitoring (MRM) method was selected for quantitative analysis. For analyte and internal standard, the optimum transitions were 519.50 > 129.15 (five charges) and 649.15 > 120.10 (four charges), 393.20 > 373.25, and 237.15 > 194.15, respectively. The instrumental parameters were set as follows: nebulizing gas flow was 3 L/min; heating gas flow was 10 L/min; interface temperature was 300°C; DL temperature was 250°C; and heat block temperature was 400°C.
(§2) PK parameters were estimated by a noncompartmental model with the calculation model of “Linear Trapezoidal Linear Interpolation” using WinNonlin (Phoenix TM, version 8.1). If the plasma F3 was detected, the following pharmacokinetic parameters were measured and calculated: Cmax (maximum blood concentration), Tmax (peak time), T1/2 (elimination half-life), AUC (area under plasma concentration-time curve), Vz_F_obs (apparent distribution volume), Cl_F_obs (clearance rate), and MRTInf_obs (mean residence time).

SD rats [3] = test: Histopathologic examination (H&E) of vital organs; conditions: s.c. 10.0 mg/kg daily x14 d
Description: After blood was collected at the predetermined time points, all rats were euthanized and subjected to a comprehensive general autopsy, which included a thorough examination of the external surface of the body, all foramen, cranial cavity, external surface of the brain, chest, abdomen, pelvic cavity, viscera, cervix, and genitalia. The adrenal gland, brain (brain, cerebellum, and brain stem), epididymis, heart, kidney, liver, ovary, spleen, testis, thymus, thyroid gland, and uterus were carefully collected, weighed, and documented before being kept in 10% neutral formalin buffer (10% NBF).
The H&E staining was followed as reported elsewhere. Following formalin fixation, the important tissues were dehydrated, stained with hematoxylin (about 15 minutes) and eosin (1–3 minutes), dehydrated again with gradient alcohol, clarified in xylene, and then examined and recorded under the microscope.

[4] = Pharmacokinetics of single subcutaneous injection of F3 (1.0 mg/kg); conditions: single s.c. 1.0 mg/kg, plasma, LC-MS/MS; for AUC(0-inf) / AUC(0-t) / Cmax / Tmax / half-life / CL/F / MRT: Sprague-Dawley, rat, sc; for CL/F: read-out: Cl_F_obs (clearance rate) (converted); for MRT: read-out: MRTInf_obs (mean residence time)
Procedure: A single subcutaneous injection of 1.0 mg/kg F3 was given to a total of 12 SD rats (6 females, 6 males). Before and after F3 administration, whole blood samples were collected at predetermined time intervals (0, 0.5, 1, 2, 4, 6, 8, 24, 48, 72, 96, 144, and 192 hr). At each time point, at least 0.5 ml blood samples were taken alternatively from 3M/3F rats.
as §1, §2

[5] = female SD rats, s.c. 10.0 mg/kg daily x14 d, 14th dose, plasma, LC-MS/MS
[6] = female, Sprague-Dawley, rat, plasma, sc, 10 mg/kg, female SD rats, s.c. 10.0 mg/kg daily x14 d, 1st dose, LC-MS/MS
[7] = female, Sprague-Dawley, rat, plasma, sc, 10 mg/kg, female SD rats, s.c. 10.0 mg/kg daily x14 d, 14th dose, LC-MS/MS
[8] = male, Sprague-Dawley, rat, plasma, sc, 10 mg/kg, male SD rats, s.c. 10.0 mg/kg daily x14 d, 1st dose, LC-MS/MS
[9] = male, Sprague-Dawley, rat, plasma, sc, 10 mg/kg, male SD rats, s.c. 10.0 mg/kg daily x14 d, 14th dose, LC-MS/MS

Which results are given for `CC[C@H](C)[C@H](NC(=O)[C@H](CO)NC(=O)CNC(=O)[C@H](CC(C)C)NC(=O)[C@@H](NC(=O)CNC(=O)[C@H](Cc1ccccc1)NC(=O)[C@H](CC(C)C)NC(=O)CN)C(C)C)C(=O)N[C@@H](C)C(=O)N[C@@H](CCCCN)C(=O)N[C@@H](Cc1c[nH]cn1)C(=O)N[C@H](C(=O)N[C@@H](CC(C)C)C(=O)N1CCC[C@H]1C(=O)N[C@@H](Cc1c[nH]cn1)C(=O)N[C@H](C(=O)N[C@H](C(=O)N1CCC[C@H]1C(=O)N[C@H](C(=O)N[C@H](C(=O)N[C@@H](C)C(=O)N[C@@H](CCC(=O)O)C(=O)N[C@@H](CCCCN)C(=O)N[C@@H](CC(C)C)C(N)=O)[C@@H](C)CC)C(C)C)C(C)C)C(C)C)C(C)C` [F3, Caerin 1.9] (H-GLFGVLGSIAKHVLPHVVPVIAEKL-NH2)?
effect on food intake, body weight, and weight change (SD rats [1]): no effect; accumulation in plasma ([2]; SD rats, 10 mg/kg): no F3 accumulation; accumulation in plasma ([2]; SD rats, listed as Caerin 1.9, 10 mg/kg): no accumulation; Tmax ([2]; SD rats, s.c., over single 1.0 mg/kg and repeated 10.0 mg/kg groups): between half an hour and one hour; AUC_%Extrap_obs ([2]; female SD rats, s.c. 10.0 mg/kg daily x14 d, 1st dose, plasma, LC-MS/MS): 1.48%; T max ([2]; female SD rats, s.c. 10.0 mg/kg daily x14 d, 1st dose, plasma, LC-MS/MS, 10 mg/kg): 1 h and 1.00 h; AUC_%Extrap_obs [2, 5]: 0.658%; T max [2, 5]: 1.00 h; AUC(0-inf) ([2]; female, Sprague Dawley, rat, plasma, sc, 10 mg/kg, female SD rats, s.c. 10.0 mg/kg daily x14 d, 14th dose, LC-MS/MS): 1.11 µg·h/mL; AUC(0-inf) [2, 6]: 0.751 µg·h/mL; AUC(0-t) [2, 6]: 0.74 µg·h/mL; Cmax [2, 6]: 0.256 µg/mL; half-life [2, 6]: 1.33 h; CL/F ([2]; female, Sprague-Dawley, rat, plasma, sc, 10 mg/kg, female SD rats, s.c. 10.0 mg/kg daily x14 d, 1st dose, plasma, LC-MS/MS): 13.3 L/h/kg; MRT ([2]; female, Sprague-Dawley, rat, plasma, sc, 10 mg/kg, female SD rats, s.c. 10.0 mg/kg daily x14 d, 1st dose, plasma, LC-MS/MS, read-out: MRTInf_obs (mean residence time)): 2.96 h; AUC(0-t) [2, 7]: 1.1 µg·h/mL; Cmax [2, 7]: 0.496 µg/mL; half-life [2, 7]: 1.03 h; CL/F ([2]; female, Sprague-Dawley, rat, plasma, sc, 10 mg/kg, female SD rats, s.c. 10.0 mg/kg daily x14 d, 14th dose, plasma, LC-MS/MS): 9.01 L/h/kg; MRT at 14 days ([2]; female, Sprague-Dawley, rat, plasma, sc, 10 mg/kg, female SD rats, s.c. 10.0 mg/kg daily x14 d, 14th dose, plasma, LC-MS/MS, read-out: MRTInf_obs (mean residence time)): 1.91 h; AUC_%Extrap_obs ([2]; male SD rats, s.c. 10.0 mg/kg daily x14 d, 1st dose, plasma, LC-MS/MS): 0.807%; T max ([2]; male SD rats, s.c. 10.0 mg/kg daily x14 d, 1st dose, plasma, LC-MS/MS, 10 mg/kg): 1 h; AUC_%Extrap_obs ([2]; male SD rats, s.c. 10.0 mg/kg daily x14 d, 14th dose, plasma, LC-MS/MS): 0.365%; AUC(0-inf) [2, 8]: 1.91 µg·h/mL; AUC(0-t) [2, 8]: 1.89 µg·h/mL; Cmax [2, 8]: 0.591 µg/mL; half-life [2, 8]: 4.58 h; CL/F ([2]; male, Sprague-Dawley, rat, plasma, sc, 10 mg/kg, male SD rats, s.c. 10.0 mg/kg daily x14 d, 1st dose, plasma, LC-MS/MS): 5.25 L/h/kg; Tmax ([2]; male, Sprague-Dawley, rat, plasma, sc, 10 mg/kg, male SD rats, s.c. 10.0 mg/kg daily x14 d, 1st dose, plasma, LC-MS/MS, read-out: T max): 1 h; AUC(0-inf) [2, 9]: 1.27 µg·h/mL; AUC(0-t) [2, 9]: 1.27 µg·h/mL; Cmax [2, 9]: 0.527 µg/mL; half-life [2, 9]: 0.894 h; CL/F ([2]; male, Sprague-Dawley, rat, plasma, sc, 10 mg/kg, male SD rats, s.c. 10.0 mg/kg daily x14 d, 14th dose, plasma, LC-MS/MS): 7.85 L/h/kg; MRT at 14 days ([2]; male, Sprague-Dawley, rat, plasma, sc, 10 mg/kg, male SD rats, s.c. 10.0 mg/kg daily x14 d, 14th dose, plasma, LC-MS/MS, read-out: MRTInf_obs (mean residence time)): 2.06 h; Tmax ([2]; male, Sprague-Dawley, rat, plasma, sc, 10 mg/kg, male SD rats, s.c. 10.0 mg/kg daily x14 d, 14th dose, plasma, LC-MS/MS, read-out: T max): 0.5 h; histopathologic examination of essential organs (SD rats [3]): no apparent abnormalities; AUC(0-inf) ([4]; female SD rats): 0.222 µg·h/mL; AUC(0-t) ([4]; female SD rats): 0.216 µg·h/mL; Cmax ([4]; female SD rats): 0.11 µg/mL; Tmax ([4]; female SD rats): 0.5 h; half-life ([4]; female SD rats): 0.677 h; CL/F ([4]; female SD rats): 4.5 L/h/kg; MRT ([4]; female SD rats): 1.42 h; AUC(0-inf) ([4]; male SD rats): 0.686 µg·h/mL; AUC(0-t) ([4]; male SD rats): 0.661 µg·h/mL; Cmax ([4]; male SD rats): 0.256 µg/mL; Tmax ([4]; male SD rats): 1 h; half-life ([4]; male SD rats): 1.16 h; CL/F ([4]; male SD rats): 1.46 L/h/kg; MRT ([4]; male SD rats): 2.05 h; AUC_%Extrap_obs ([4]; female SD rats): 2.88%; T max ([4]; female SD rats): 0.5 h; T max ([4]; male SD rats): 1 h
